Test results: patent US20140147397A1, “STABLE AMORPHOUS SOLID FORM OF A TRIAZINE DERIVATIVE AND THE CORRESPONDING MANUFACTURING PROCESS” (3V SIGMA S.P.A., priority 2012, published 2014)

Legend:
Format in all cases: physicochemical
[1] = Dissolution rate test in caprylic/capric triglyceride; settings: 4.0 g powder in 96.0 g caprylic/capric triglyceride, stirring, 25° C., visual inspection
Method: (§1) Description of dissolution rate test. 4.0 g of powder was dispersed under stirring in 96.0 g of caprylic/capric triglyceride solvent at 25° C. The total dissolution time was measured, with visual inspection, noting the time of complete disappearance of any heterogeneity in the form of particles or opalescence in the solution.

[2] = Dissolution rate test in ethylhexyl stearate; settings: 4.0 g powder in 96.0 g ethylhexyl stearate, stirring, 25° C., visual inspection
Method: as §1, with “ethylhexyl stearate” for “caprylic/capric triglyceride”

[3] = Dissolution rate test in octyl dodecanol; settings: 4.0 g powder in 96.0 g octyl dodecanol, stirring, 25° C., visual inspection
Method: as §1, with “octyl dodecanol” for “caprylic/capric triglyceride”

[4] = Stability of the amorphous solid form by DSC; settings: for solid form stability by DSC: DSC technique
Method: Samples 1C and 1A were characterised by the differential scanning calorimetry (DSC) technique. […] The amorphous solid sample 1A according to the present invention presented a first exothermic transition (corresponding to a formation of crystalline form) at temperatures of between 50 and 90° C., and subsequently at 128° C., the endothermic transition corresponding to melting of the crystalline form that formed at lower temperatures.
Sample 1A was stored for 12 months at room temperature and subjected to a second DSC measurement. Its appearance was still that of a white powder.

Compound | dissolution time [1] | solid form stability by DSC [4] | dissolution time [2] | dissolution time [3] | DSC curve after storage (stability of amorphous form) ([4]; stored for 12 months at room temperature, second DSC measurement)
CCCCC(CC)COC(=O)c1ccc(Nc2nc(Nc3ccc(C(=O)OCC(CC)CCCC)cc3)nc(Nc3ccc(C(=O)OCC(CC)CCCC)cc3)n2)cc1 (stereo not drawn) [Sample 1A] | 15 min |  | 40 min | 90 min | identical to the curve obtained a year earlier
CCCCC(CC)COC(=O)c1ccc(Nc2nc(Nc3ccc(C(=O)OCC(CC)CCCC)cc3)nc(Nc3ccc(C(=O)OCC(CC)CCCC)cc3)n2)cc1 (stereo not drawn) [Sample 2A] | 15 min | stable amorphous form |  |  | 
CCCCC(CC)COC(=O)c1ccc(Nc2nc(Nc3ccc(C(=O)OCC(CC)CCCC)cc3)nc(Nc3ccc(C(=O)OCC(CC)CCCC)cc3)n2)cc1 (stereo not drawn) [Sample 3A] | 15 min | stable amorphous form |  |  | 

Now from value to molecule, other results behind:

dissolution time [1] | solid form stability by DSC [4] | Compound | dissolution time [2] | dissolution time [3] | DSC curve after storage (stability of amorphous form) ([4]; stored for 12 months at room temperature, second DSC measurement)
over 90 minutes |  | CCCCC(CC)COC(=O)c1ccc(Nc2nc(Nc3ccc(C(=O)OCC(CC)CCCC)cc3)nc(Nc3ccc(C(=O)OCC(CC)CCCC)cc3)n2)cc1 (stereo not drawn) [Sample 1C, reference compound] | over 420 minutes (opaque white dispersion) | over 420 minutes (insoluble-opaque white dispersion) | 
over 90 minutes |  | CCCCC(CC)COC(=O)c1ccc(Nc2nc(Nc3ccc(C(=O)OCC(CC)CCCC)cc3)nc(Nc3ccc(C(=O)OCC(CC)CCCC)cc3)n2)cc1 (stereo not drawn) [Sample 2C, reference compound] |  |  | 
